Experimental data published in US10681909B2, “Herbicidal triazoles” (FMC Corporation, priority 2014, dated 2020).

Assays:
foxtail, giant [1] = test: Test A preemergence; format: in vivo, Setaria faberii; details: 0 to 100 scale (0 no effect, 100 complete control)
Summary of the method: (§1)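 Plant seeds in loam soil blended with sand, then apply test chemical preemergence as a directed soil spray; in parallel, spray potted seedlings (one- to two-leaf, 2 to 10 cm) postemergence. Both treatments use a non-phytotoxic solvent mixture with surfactant.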

pigweed [2] = test: Test A preemergence; format: in vivo, Amaranthus retroflexus; details: 0 to 100 scale (0 no effect, 100 complete control)
Summary of the method: as §1

foxtail, giant [3] = test: Test A postemergence; format: in vivo, Setaria faberii; details: 0 to 100 scale (0 no effect, 100 complete control), approx. 10 d
Summary of the method: as §1

pigweed [4] = test: Test A postemergence; format: in vivo, Amaranthus retroflexus; details: 0 to 100 scale (0 no effect, 100 complete control), approx. 10 d
Summary of the method: as §1

ducksalad = test: Test B flooded paddy test; format: in vivo, Heteranthera limosa; details: applied to paddy water at 2-leaf stage, visual rating after 13 to 15 d, scale 0 (no effect) to 100 (complete control)
Summary of the method: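 Pots were flooded to 3 cm above the soil at treatment, and compounds were applied directly into the paddy water. That depth was held throughout. After 13 to 15 d in a greenhouse, plants were rated visually against untreated controls.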

galium = test: Test C postemergence; format: in vivo, Galium aparine
Description: (§2) Seeds of plant species selected from blackgrass (Alopecurus myosuroides), ryegrass, Italian (Italian ryegrass, Lolium multiflorum), wheat (winter wheat, Triticum aestivum), galium (catchweed bedstraw, Galium aparine), corn (Zea mays), crabgrass, large (large crabgrass, Digitaria sanguinalis), foxtail, giant, (giant foxtail, Setaria faberii), johnsongrass (Sorghum halepense), lambsquarters (Chenopodium album), morningglory (Ipomoea coccinea), nutsedge, yellow (yellow nutsedge, Cyperus esculentus), pigweed (Amaranthus retroflexus), ragweed (common ragweed, Ambrosia elatior), soybean (Glycine max), barnyardgrass (Echinochloa crus-galli), oilseed rape (Brassica napus), waterhemp (common waterhemp, Amaranthus rudis), and velvetleaf (Abutilon theophrasti) were planted into a blend of loam soil and sand and treated preemergence with test chemicals formulated in a non-phytotoxic solvent mixture which included a surfactant. At the same time, plants selected from these crop and weed species and also chickweed (common chickweed, Stellaria media), oat, wild (wild oat, Avena fatua), and kochia (Kochia scoparia), were planted in pots containing Sunshine Redi-Earth® planting medium comprising spaghnum peat moss, vermiculite, starter nutrients and dolomitic limestone and treated with postemergence applications of test chemicals formulated in the same manner. Plants ranged in height from 2 to 18 cm (1- to 4-leaf stage) for postemergence treatments. […] A dash (-) response means no test result.

corn = test: Test C postemergence; format: in vivo, Zea mays
Description: as §2

crabgrass, large = test: Test C postemergence; format: in vivo, Digitaria sanguinalis
Description: as §2

johnsongrass = test: Test C postemergence; format: in vivo, Sorghum halepense
Description: as §2

ragweed = test: Test C postemergence; format: in vivo, Ambrosia elatior
Description: as §2

soybean = test: Test C postemergence; format: in vivo, Glycine max
Description: as §2

barnyardgrass = test: Test C postemergence; format: in vivo, Echinochloa crus-galli
Description: as §2

velvetleaf = test: Test C postemergence; format: in vivo, Abutilon theophrasti
Description: as §2

CCc1nc(-c2ccc(C(F)(F)F)cc2)nn1Cc1ccnc(C(F)(F)F)c1 [Compound 1, 4-[[5-ethyl-3-[4-(trifluoromethyl)phenyl]-1H-1,2,4-triazol-1-yl]methyl]-2-(trifluoromethyl)pyridine]
pest or weed control at 125 g/ha (foxtail, giant [1]; Setaria faberi, pre-emergence, 240 h, 125 g ai/ha, read-out: Plant response rating, Foxtail, Giant): 100% | pest or weed control at 500 g/ha (foxtail, giant [1]; Setaria faberi, pre-emergence, 240 h, 500 g ai/ha, approx. 10 d, read-out: Plant response rating, Foxtail, Giant): 100% | pest or weed control at 125 g/ha (pigweed [2]; Amaranthus retroflexus, pre-emergence, 240 h, 125 g ai/ha, read-out: Plant response rating, Pigweed): 100% | pest or weed control at 500 g/ha (pigweed [2]; Amaranthus retroflexus, pre-emergence, 240 h, 500 g ai/ha, approx. 10 d, read-out: Plant response rating, Pigweed): 100% | pest or weed control at 125 g/ha (foxtail, giant [3]; Setaria faberi, post-emergence, 240 h, 125 g ai/ha, read-out: Plant response rating, Foxtail, Giant): 90% | pest or weed control at 500 g/ha (foxtail, giant [3]; Setaria faberi, post-emergence, 240 h, 500 g ai/ha, read-out: Plant response rating, Foxtail, Giant): 100% | pest or weed control at 125 g/ha (pigweed [4]; Amaranthus retroflexus, post-emergence, 240 h, 125 g ai/ha, read-out: Plant response rating, Pigweed): 100% | pest or weed control at 500 g/ha (pigweed [4]; Amaranthus retroflexus, post-emergence, 240 h, 500 g ai/ha, read-out: Plant response rating, Pigweed): 100% | pest or weed control at 125 g/ha (ducksalad; Heteranthera limosa, 360 h, 125 g ai/ha, read-out: Plant response rating, Ducksalad, Flood): 20% | Plant response rating (scale of 0 to 100 where 0 is no effect and 100 is complete control) (galium; 31 g ai/ha): 80 | Plant response rating (scale of 0 to 100 where 0 is no effect and 100 is complete control) (galium; 62 g ai/ha): 80 | Plant response rating (scale of 0 to 100 where 0 is no effect and 100 is complete control) (galium; 125 g ai/ha): 90 | Plant response rating (scale of 0 to 100 where 0 is no effect and 100 is complete control) (galium; 250 g ai/ha): 90 | Plant response rating (scale of 0 to 100 where 0 is no effect and 100 is complete control) (corn; 31 g ai/ha): 15 | Plant response rating (scale of 0 to 100 where 0 is no effect and 100 is complete control) (corn; 62 g ai/ha): 15 | Plant response rating (scale of 0 to 100 where 0 is no effect and 100 is complete control) (corn; 125 g ai/ha): 20 | Plant response rating (scale of 0 to 100 where 0 is no effect and 100 is complete control) (corn; 250 g ai/ha): 20 | Plant response rating (scale of 0 to 100 where 0 is no effect and 100 is complete control) (crabgrass, large; 31 g ai/ha): 5 | Plant response rating (scale of 0 to 100 where 0 is no effect and 100 is complete control) (crabgrass, large; 62 g ai/ha): 5 | Plant response rating (scale of 0 to 100 where 0 is no effect and 100 is complete control) (crabgrass, large; 125 g ai/ha): 45 | Plant response rating (scale of 0 to 100 where 0 is no effect and 100 is complete control) (crabgrass, large; 250 g ai/ha): 45 | Plant response rating (scale of 0 to 100 where 0 is no effect and 100 is complete control) (johnsongrass; 31 g ai/ha): 10 | Plant response rating (scale of 0 to 100 where 0 is no effect and 100 is complete control) (johnsongrass; 62 g ai/ha): 10 | Plant response rating (scale of 0 to 100 where 0 is no effect and 100 is complete control) (johnsongrass; 125 g ai/ha): 15 | Plant response rating (scale of 0 to 100 where 0 is no effect and 100 is complete control) (johnsongrass; 250 g ai/ha): 20 | Plant response rating (scale of 0 to 100 where 0 is no effect and 100 is complete control) (ragweed; 31 g ai/ha): 60 | Plant response rating (scale of 0 to 100 where 0 is no effect and 100 is complete control) (ragweed; 62 g ai/ha): 70 | Plant response rating (scale of 0 to 100 where 0 is no effect and 100 is complete control) (ragweed; 125 g ai/ha): 75 | Plant response rating (scale of 0 to 100 where 0 is no effect and 100 is complete control) (ragweed; 250 g ai/ha): 80 | Plant response rating (scale of 0 to 100 where 0 is no effect and 100 is complete control) (soybean; 31 g ai/ha): 20 | Plant response rating (scale of 0 to 100 where 0 is no effect and 100 is complete control) (soybean; 62 g ai/ha): 35 | Plant response rating (scale of 0 to 100 where 0 is no effect and 100 is complete control) (soybean; 125 g ai/ha): 50 | Plant response rating (scale of 0 to 100 where 0 is no effect and 100 is complete control) (soybean; 250 g ai/ha): 50 | Plant response rating (scale of 0 to 100 where 0 is no effect and 100 is complete control) (barnyardgrass; 31 g ai/ha): 10 | Plant response rating (scale of 0 to 100 where 0 is no effect and 100 is complete control) (barnyardgrass; 62 g ai/ha): 15 | Plant response rating (scale of 0 to 100 where 0 is no effect and 100 is complete control) (barnyardgrass; 125 g ai/ha): 15 | Plant response rating (scale of 0 to 100 where 0 is no effect and 100 is complete control) (barnyardgrass; 250 g ai/ha): 50 | Plant response rating (scale of 0 to 100 where 0 is no effect and 100 is complete control) (velvetleaf; 31 g ai/ha): 40 | Plant response rating (scale of 0 to 100 where 0 is no effect and 100 is complete control) (velvetleaf; 62 g ai/ha): 55 | Plant response rating (scale of 0 to 100 where 0 is no effect and 100 is complete control) (velvetleaf; 125 g ai/ha): 60 | Plant response rating (scale of 0 to 100 where 0 is no effect and 100 is complete control) (velvetleaf; 250 g ai/ha): 75

CCCOc1nc(-c2ccccc2)nn1Cc1ccnc(C(F)(F)F)c1 [Compound 33]
Plant response rating, Foxtail, Giant (foxtail, giant [1]; 125 g ai/ha): 90 | Plant response rating, Foxtail, Giant (foxtail, giant [1]; 500 g ai/ha, approx. 10 d): 100 | Plant response rating, Pigweed (pigweed [2]; 125 g ai/ha): 90 | Plant response rating, Pigweed (pigweed [2]; 500 g ai/ha, approx. 10 d): 90 | Plant response rating, Foxtail, Giant (foxtail, giant [3]; 125 g ai/ha): 40 | Plant response rating, Foxtail, Giant (foxtail, giant [3]; 500 g ai/ha): 90 | Plant response rating, Pigweed (pigweed [4]; 125 g ai/ha): 100 | Plant response rating, Pigweed (pigweed [4]; 500 g ai/ha): 100 | Plant response rating, Ducksalad, Flood (ducksalad; 250 g ai/ha): 30 | Plant response rating (scale of 0 to 100 where 0 is no effect and 100 is complete control) (galium; 31 g ai/ha): 55 | Plant response rating (scale of 0 to 100 where 0 is no effect and 100 is complete control) (galium; 62 g ai/ha): 60 | Plant response rating (scale of 0 to 100 where 0 is no effect and 100 is complete control) (galium; 125 g ai/ha): 75 | Plant response rating (scale of 0 to 100 where 0 is no effect and 100 is complete control) (galium; 250 g ai/ha): 80 | Plant response rating (scale of 0 to 100 where 0 is no effect and 100 is complete control) (corn; 31 g ai/ha): 25 | Plant response rating (scale of 0 to 100 where 0 is no effect and 100 is complete control) (corn; 62 g ai/ha): 30 | Plant response rating (scale of 0 to 100 where 0 is no effect and 100 is complete control) (corn; 125 g ai/ha): 25 | Plant response rating (scale of 0 to 100 where 0 is no effect and 100 is complete control) (corn; 250 g ai/ha): 25 | Plant response rating (scale of 0 to 100 where 0 is no effect and 100 is complete control) (crabgrass, large; 31 g ai/ha): 5 | Plant response rating (scale of 0 to 100 where 0 is no effect and 100 is complete control) (crabgrass, large; 62 g ai/ha): 10 | Plant response rating (scale of 0 to 100 where 0 is no effect and 100 is complete control) (crabgrass, large; 125 g ai/ha): 10 | Plant response rating (scale of 0 to 100 where 0 is no effect and 100 is complete control) (crabgrass, large; 250 g ai/ha): 15 | Plant response rating (scale of 0 to 100 where 0 is no effect and 100 is complete control) (johnsongrass; 31 g ai/ha): 5 | Plant response rating (scale of 0 to 100 where 0 is no effect and 100 is complete control) (johnsongrass; 62 g ai/ha): 5 | Plant response rating (scale of 0 to 100 where 0 is no effect and 100 is complete control) (johnsongrass; 125 g ai/ha): 10 | Plant response rating (scale of 0 to 100 where 0 is no effect and 100 is complete control) (johnsongrass; 250 g ai/ha): 15 | Plant response rating (scale of 0 to 100 where 0 is no effect and 100 is complete control) (ragweed; 31 g ai/ha): 35 | Plant response rating (scale of 0 to 100 where 0 is no effect and 100 is complete control) (ragweed; 62 g ai/ha): 35 | Plant response rating (scale of 0 to 100 where 0 is no effect and 100 is complete control) (ragweed; 125 g ai/ha): 40 | Plant response rating (scale of 0 to 100 where 0 is no effect and 100 is complete control) (ragweed; 250 g ai/ha): 75 | Plant response rating (scale of 0 to 100 where 0 is no effect and 100 is complete control) (soybean; 31 g ai/ha): 25 | Plant response rating (scale of 0 to 100 where 0 is no effect and 100 is complete control) (soybean; 62 g ai/ha): 35 | Plant response rating (scale of 0 to 100 where 0 is no effect and 100 is complete control) (soybean; 125 g ai/ha): 55 | Plant response rating (scale of 0 to 100 where 0 is no effect and 100 is complete control) (soybean; 250 g ai/ha): 65 | Plant response rating (scale of 0 to 100 where 0 is no effect and 100 is complete control) (barnyardgrass; 31 g ai/ha): 10 | Plant response rating (scale of 0 to 100 where 0 is no effect and 100 is complete control) (barnyardgrass; 62 g ai/ha): 20 | Plant response rating (scale of 0 to 100 where 0 is no effect and 100 is complete control) (barnyardgrass; 125 g ai/ha): 20 | Plant response rating (scale of 0 to 100 where 0 is no effect and 100 is complete control) (barnyardgrass; 250 g ai/ha): 25 | Plant response rating (scale of 0 to 100 where 0 is no effect and 100 is complete control) (velvetleaf; 31 g ai/ha): 15 | Plant response rating (scale of 0 to 100 where 0 is no effect and 100 is complete control) (velvetleaf; 62 g ai/ha): 15 | Plant response rating (scale of 0 to 100 where 0 is no effect and 100 is complete control) (velvetleaf; 125 g ai/ha): 10 | Plant response rating (scale of 0 to 100 where 0 is no effect and 100 is complete control) (velvetleaf; 250 g ai/ha): 40
